Where two headings read alike, the source gives them in different places.
How the values were obtained:
[1] = test system: A20 cells; assay: MTS viability assay, A20 (Example 1); format: cell-based, murine; settings: Mus musculus, 4.5 μg/mL Dox, MPs 4:1 loading, read-out: viable A20
Procedure: The A20 cell line (a BALB/c B cell lymphoma) and the EL4 cell line (a C57BL/6 T cell lymphoma) were purchased from ATCC (Manassas, Va.). Tumor cells were cultured in RPMI-1640 medium (Gibco, Carlsbad, Calif.) supplemented with 10% heat-inactivated FCS (HyClone, Logan, Utah), 100 U/mL penicillin, 100 μg/mL streptomycin, and 50 μM 2-ME (All from Gibco), as complete medium.
To determine the cytotoxic activity of MPs against A20 and EL4, the 3-(4,5 dimethylthiazol-2-yl)-5-(3-carboxymethoxyphenyl-2-(4-sulfophenyl)-2H-tetrazolium (MTS) assay for viability was conducted using CellTiter 96® AQueous Non-Radioactive Cell Proliferation Assay (Promega, Madison, Wis.). Five thousand A20 and EL4 cells were separately incubated with soluble Dox or Dox/CpG MPs (4:1 loading) in 96-well plates for 24, 48, and 72 h (four wells per group) at a final Dox concentration of 4.5 μg/mL. Media or blank MPs at equivalent weights were used as negative controls. The MTS/PMS reagent was then added for 4 h at 37° C. […] Absorbance was read at 490 nm using Thermomax Microplate Reader (Molecular Devices, Sunnyvale, Calif.). […] Viability was assessed as before.
Percent survival was expressed as the ratio of absorbance of treated cells relative to that of untreated cells in media group (after subtracting the absorbance of the blank from each) multiplied by 100. […]

[2] = test system: A20 cells; assay: MTS viability assay, A20 (Example 2); format: cell-based, murine
Procedure: (§1) The MTS assay for viability was used to determine the cytotoxic activity of Dox MPs against A20 and DCs (Promega, Madison, Wis.). Briefly, 5×10^3 A20 cells or DCs were incubated with Dox MPs (8 μg/mg) for 24, 48 or 72 h (4 wells per group) at a range of Dox concentrations. Blank MPs were used as negative controls. MTS was added for 4 h at 37° C. Following centrifugation, 90 μl of supernatant was removed. Absorbance was read at 490 nm using a Thermomax Microplate Reader (Molecular Devices, Sunnyvale, Calif.).

[3] = test system: bone-marrow-derived DCs; assay: MTS viability assay, DCs (Example 2); format: cell-based, BALB/c mice; settings: 24 h; 1.125 μg/mL Dox; FIG. 8B
Procedure: To generate murine bone-marrow-derived DCs, bone marrow cells were flushed from tibias and femurs of BALB/c mice, and mononuclear cells isolated using Ficoll gradient separation (Fico/Lite-LM, Atlanta Biologicals, Flowery Branch, Ga.). Cells were cultured in medium supplemented with 20 ng/mL each GM-CSF and IL4 (PeproTech, Rocky Hill, N.J.) for 7 days. Non-adherent cells were harvested. Cells were >70% DCs as determined by CD11c staining.
as §1

[4] = test system: A20 cells phagocytosed by DCs; assay: Phagocytosis assay of A20 by DCs; format: cell-based, murine; settings: A20 treated 48 h, co-incubated with DCs 1:1 for 2 h
Procedure: A20 phagocytosis was quantified using A20 cells labeled with CellTrace Violet (Invitrogen, Carlsbad, Calif.). Labeled A20 were left untreated or treated with Dox MPs for 48 h (3 wells per group) at various concentrations. Controls included soluble Dox (at the same concentrations) and blank MPs (at equivalent weights). Treated A20 were washed and co-incubated with DCs at a 1:1 ratio for 2 h, stained with anti-CD11c-APC-Cy7 (BD), and analyzed by flow cytometry. The percentage of double-positive cells (CD11c and CellTrace Violet) was determined.

[5] = lymphoma patients; 30 mg/m^2 Dox; cited from earlier work

COc1cccc2c1C(=O)c1c(O)c3c(c(O)c1C2=O)C[C@@](O)(C(=O)CO)C[C@@H]3O[C@H]1C[C@H](N)[C@H](O)[C@H](C)O1 [soluble Dox, Doxorubicin]
viability at 4.5 µg/mL ([1]; A20, 24 h, day 1): 26% | viability at 4.5 µg/mL ([1]; A20, 48 h, day 2): 4% | survival of A20 ([2]; 24 h, 1.125 μg/mL Dox, FIG. 8B comparison with DCs): 26% | viability at 0.5625 µg/mL ([2]; Mus musculus, A20, Day 1 (24 h), 0.5625 μg/mL Dox, FIG. 8A): 87% | viability at 1.125 µg/mL ([2]; Mus musculus, A20, Day 1 (24 h), 1.125 μg/mL Dox, FIG. 8A): 46% | viability at 1.125 µg/mL ([2]; Mus musculus, A20, Day 2 (48 h), 1.125 μg/mL Dox): 5% | survival of DCs [3]: 19% | phagocytosis of A20 tumor cells by DCs [4]: enhanced phagocytosis of A20 cells | peak plasma concentration [5]: 278 ng/mL
